Laboratory results published in patent US20250027086A1, “COMPOSITIONS AND METHODS FOR TREATMENT OF CANCERS USING MODIFIED siRNA-GEM AGENTS” (Sirnaomics, Inc., priority 2022, published 2025).
“Also recorded” adds a separate entry of the source. Read-outs that look alike come from different tables or passages of the source.

Columns and labels:
MiaPaCa-2 cells = assay: Cell viability (CellTiter-Glo) in MiaPaCa-2 pancreatic cancer cells after transfection; type: cell-based, human; details: Homo sapiens, MIA PaCa-2
Protocol: (§1) MIA PaCa-2, […], LS180, HT1376, HT29, H358, H1299, OVCAR-3, HTB-9 and Panc 10.05 cells were obtained from ATCC (Rockville, MD). MiaPaCa cells were cultured in DMEM medium supplemented with 10% FBS. H358, H1299, HTB-9, N87 and Panc 10.05 cells were cultured in DMEM/10% FBS; LS180 and HT1376 in EMEM/10% FBS; HT29 cells in McCoy5A/10% FBS; OVCAR-3 cells were incubated in RPMI/20% FBS. All cells were maintained at 37 degrees C. in an atmosphere containing 5% CO^2.
(§2) The day before transfection, cells were seeded in a 384-well plate at an optimal density of between 300 and 800 cells/well. The next day, ten 3-fold serial dilutions of single, modified-backbone siRNAs or PGN6/PGN7 siRNA and Gemcitabine (GEM) mixed with siRNAs: Wee1 #7, KRAS #1, MCL1 #3 or DM2-P47 siRNAs at 1:1 ratio were prepared and combined with diluted Lipofectamine RNAiMAX (Life Technologies, Carlsbad, CA). Within 20 minutes, 10 μl of the transfection mixtures were added to the cells in a 40 μL medium. The final concentrations of siRNAs or Gemcitabine in the wells ranged from 100 nM to 0.002 nM.
(§3) Ninety-six hours following the addition of GEM or transfection mixtures, the number of viable cells was determined with CellTiter-Glo®-2.0 reagent (Promega, Madison, WI) by measuring luminescent signal using a Cytation 5 plate reader (BioTek Inc, Winooski, VT). The treatment group (n=4) mean (±SD) was compared to those of non-treated controls and were reported as relative cell viability.

MDA-MB231 cells = assay: Cell viability in triple negative breast cancer cell line MDA-MB231; type: cell-based; details: MDA-MB231, 400 cells per well; FIG. 13(a)
Protocol: as §1
(§4) The day before transfection, cells were seeded in a 384-well plate at an optimal density of between 300 and 800 cells/well. […]
(§5) Ninety-six hours following the addition of GEM or transfection mixtures, the number of viable cells was determined with CellTiter-Glo®-2.0 reagent (Promega, Madison, WI) by measuring luminescent signal using a Cytation 5 plate reader (BioTek Inc, Winooski, VT). […]
(§6) Using the same or similar experimental condition as are described above in Example 1, the effects of (i) PGN7 (SEQ. ID No. 9-10) plus a non-signaling oligonucleotide (“NS”), (ii) BCLxL #5 (SEQ. ID No. 14)+NS, and (iii) PGN7 and BCLxL #5 in combination were evaluated and are shown in triple negative breast cancer (MDA-MB231) and ovarian cancer (OVCAR3) cell lines in FIGS. 13 (a)-(b). […]

OVCAR3 cells = assay: Cell viability in ovarian cancer cell line OVCAR3; type: cell-based; details: OVCAR3, 800 cells per well; FIG. 13(b)
Protocol: as §1, §4, §5, §6

[1] = tested on: MIA PaCa-2 human pancreatic cancer xenograft; assay: PGN6 efficacy on pancreatic tumor growth in NOD/SCID mice inoculated with MIA PaCa-2; type: in vivo, mouse
Excerpt: Twenty, 6- to 9-week old NOD/SCID female mice were purchased from the Jackson Laboratory. Each mouse was tagged for identification at the beginning of the study. Up to 5 mice were housed in a single cage with standard corn cob bedding for a minimum of three days for stabilization; bedding was changed every two weeks. Fluorescent lighting was provided on a 12-hour cycle; temperature was maintained between 68-79 degrees F. at 30-70 percent humidity. Mice were fed an 18 percent soy irradiated rodent feed (Envigo) and autoclaved acidified water (pH 2.5-3) were available to all animals ad libitum. The mice were observed daily for clinical signs of disease.
Tumor cell preparation: Cryogenic vials containing tumor cells were thawed and cultured according to the manufacturer's protocol. On the day of inoculation, cells were washed in a serum-free media, counted, and resuspended in cold serum-free media at a concentration of 3 million cells per 100 microliters. […]
Tumor measurement: Mice were monitored weekly for palpable tumors or changes in appearance or behavior. Once tumors were palpable they were measured weekly using calipers. Tumor volume was calculated using the equation: […]
Once tumors were on average between 150-250 mm^3 in volume, tumors and body weights were measured at least twice weekly for the duration of the study. […]

[2] = tested on: pancreatic, lung and colon cancer cell lines; assay: Cell viability in pancreatic, lung and colon cancer cell lines; type: cell-based
Protocol: as §1, §2, §3
Using the same experimental conditions as are described above in Example 1, the efficacy on cell viability was evaluated for PGN6 (SEQ. ID Nos. 7-8), with and without lipofentamine (“lipo”) in three types of cancer cell lines. FIG. 3 (a)-(c) show the effects of PGN6, with and without lipo on cell viability at increasing siRNA levels in pancreatic cancer cell lines. FIG. 4 (a)-(b) similarly show the effects of these variants on cell viability in lung cancer cell lines; FIG. 5 (a)-(b) show the effects of these variants on cell viability in colon cancer cell lines. All data are shown as mean±SD. […]
Using the same experimental conditions as are described above in Example 1, the efficacy of STD1 (SEQ. ID Nos. 1-2), PGN6 (SEQ. ID Nos. 7-8) and PGN7 (SEQ. ID Nos. 9-10) were evaluated in three types of cancer cell lines. […]
Using the same experimental conditions as are described above in Example 1, the efficacy of PGN7 (SEQ. ID No. 9-10) alone and its combination with WEE1 #7 (SEQ. ID No. 13) was evaluated in three types of cancer cell lines. […]
Using the same experimental conditions as are described above in Example 1, the efficacy of PGN7 (SEQ. ID No. 9-10) and the combination of BCLxL #5 (SEQ. ID No. 14) and PGN7 was evaluated in three types of cancer cell lines. […]

[3] = tested on: HT1376, HTB-9, N87 and OVCAR-3 cell lines; assay: Cell viability in urinary bladder, gastric and ovarian cancer cell lines; type: cell-based; details: HT1376, HTB-9, N87, OVCAR-3; FIGS. 9-10
Protocol: as §1, §4, §5
Using the same or similar experimental condition as are described above in Example 1, the effects of PGN7 (SEQ. ID No. 9-10), Wee1 (SEQ. ID No. 13), BCLxL #5 (SEQ. ID No. 14) or the PGN7+Wee1, or PGN+BCLxL combinations were evaluated and are shown in HT1376 (400 cells/well) and HTB-9 (800 cells/well) urinary bladder cancer cell lines, N87 (600 cells/well) gastric cancer cell line, and OVCAR-3 (800 cells/well) ovarian cancer line in FIGS. 11 (a)-(d). […]

`Nc1ccn([C@@H]2O[C@H](CO)[C@@H](O)C2(F)F)c(=O)n1` [Gemcitabine, 2′, 2′-difluoro 2′-deoxycytidine] gave an IC50 (MiaPaCa-2 cells; in combination with lipofectamine, 96 h, n=4 (FIG. 2), read-out: IC50, MiaPaCa-2 cell viability) of 8 nM and an IC50 (MiaPaCa-2 cells; with lipofectamine (GEM alone for gemcitabine), FIG. 2, read-out: ID50, MiaPaCa cells) of 8 nM.
“BCLxL #5: siRNA sequence used to target BCLxL, SEQ. ID No. 14 (no GEM) (GCGTGGAAAGCGTAGACAAGGAGAT; listed as DNA, chemistry not given here)” was tested, and the IC50 (MDA-MB231 cells) was 0.5 nM and the IC50 (OVCAR3 cells) was 2.7 nM.
“PGN6: modified siRNA-GEM molecule (SEQ. ID No. 7-8): sense 5′-AAGAAAgAgau [GEM]UGUAU[GEM]AAU-3′; antisense 5′-AuUGAuACAGAUCuCuuucuu[GEM][GEM]dTdT-3′ (sense AAGAAAGAGATCTGTATCAAT; antisense ATTGATACAGATCTCTTTCTTCCTT; GEM modifications; dTdT overhang; modified_base 1 OTHER; 2'-O-methyl modified nucleotide; modified_base 2 OTHER; modified_base 3 OTHER; modified_base 4 OTHER; modified_base 5 OTHER; modified_base 6 OTHER; modified_base 7 OTHER; 2'-fluoro modified nucleotide; modified_b; 2'-O-me)” was tested, and the “pancreatic tumor volume / tumor growth” value ([1]; 2 mg/kg IV twice weekly for three weeks, with DODAB siRNA in HKP(+H), vs control, n=10, FIG. 12(a)) was “attenuate or prevent tumor growth; also recorded: tumors did not grow; also recorded: attenuating the growth of pancreatic tumors”, the body weight ([1]; 2 mg/kg twice weekly, 20 days treatment period, FIG. 12(b)) was “body weight remained constant” and the “effectiveness with lipofectamine versus without lipofectamine” value ([2]; lung (FIG. 4) and colon (FIG. 5) cancer cell lines) was “apparently more effective”. For the same compound, the “effectiveness with lipofectamine versus without lipofectamine” value ([2]; pancreatic lines MiaPaCa (G12C), BXPC3 (WT), Panc10.05, FIG. 3) was “more effective” and the “reduction of cell viability” value ([2]; single siRNA against non-silencing control, pancreatic, lung, colon, FIG. 6) was “effective in reducing cell viability”.
For “WEE1 #7: siRNA sequence used to target WEE1, SEQ. ID No. 13 (no GEM) (CGCTCTGTCAGCCTTACTA; listed as DNA, chemistry not given here)”, the “efficacy on cell viability” value [3] was “significant efficacy”.
